Values of other authors, collected in patent US20240060990A1, “SPATIAL SIGNALING NETWORKS FOR MULTIPLEXED DRUG RESPONSE MEASUREMENT AND MODELING” (Georgia Tech Research Corporation, priority 2022, published 2024).

Tested on: PC-9 cell cultures
Conditions: PC-9 cells, combined with Osimertinib; cited from earlier work

In the case of `CC(C)Nc1cc(-c2c[nH]c(C(=O)N[C@H](CO)c3cccc(Cl)c3)c2)c(Cl)cn1` [VRT, VRT752271], the cell apoptosis is listed as “enhanced”.
In the case of `C=CC(=O)N1CCC(C)(Nc2cccc(C(F)(F)F)c2)C1` (centres unmarked) [YAP/TEAD inhibitor, MYF-01-37], the cell apoptosis is listed as “enhanced”.
